The text below walks through data of US8097443B2, “Nucleotidyltransferases with enhanced nucleotide triphosphate flexibility” (priority 2007, dated 2012).

T2 sequence (P26393 whole entry Q83S): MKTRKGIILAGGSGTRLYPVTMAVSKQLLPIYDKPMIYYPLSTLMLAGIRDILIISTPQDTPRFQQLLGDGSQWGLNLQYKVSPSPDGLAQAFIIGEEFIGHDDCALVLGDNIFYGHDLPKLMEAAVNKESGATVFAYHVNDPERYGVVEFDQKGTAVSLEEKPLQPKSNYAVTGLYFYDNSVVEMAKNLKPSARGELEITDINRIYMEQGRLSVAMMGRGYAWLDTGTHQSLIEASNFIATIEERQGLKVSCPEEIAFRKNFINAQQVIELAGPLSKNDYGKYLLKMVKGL
T4 sequence (P26393 whole entry Q83D): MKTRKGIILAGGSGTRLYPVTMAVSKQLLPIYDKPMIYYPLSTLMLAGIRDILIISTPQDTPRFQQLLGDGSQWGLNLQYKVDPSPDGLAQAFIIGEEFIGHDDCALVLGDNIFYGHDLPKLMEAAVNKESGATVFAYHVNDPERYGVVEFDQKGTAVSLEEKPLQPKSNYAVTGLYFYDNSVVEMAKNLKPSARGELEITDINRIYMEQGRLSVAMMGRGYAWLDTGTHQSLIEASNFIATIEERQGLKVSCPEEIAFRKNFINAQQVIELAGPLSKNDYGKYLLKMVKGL
ST0452, sequence (Q975F9 whole entry): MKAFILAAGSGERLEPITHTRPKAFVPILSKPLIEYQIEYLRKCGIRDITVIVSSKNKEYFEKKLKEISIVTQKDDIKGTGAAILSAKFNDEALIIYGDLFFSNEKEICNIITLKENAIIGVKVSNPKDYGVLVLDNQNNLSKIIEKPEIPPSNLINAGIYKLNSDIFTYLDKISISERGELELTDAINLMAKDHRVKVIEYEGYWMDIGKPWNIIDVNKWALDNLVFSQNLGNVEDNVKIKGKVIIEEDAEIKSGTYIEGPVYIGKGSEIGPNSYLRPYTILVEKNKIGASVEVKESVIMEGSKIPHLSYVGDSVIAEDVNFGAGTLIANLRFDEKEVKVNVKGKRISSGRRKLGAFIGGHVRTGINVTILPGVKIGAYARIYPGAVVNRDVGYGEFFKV
T5 sequence (P26393 whole entry Q83E): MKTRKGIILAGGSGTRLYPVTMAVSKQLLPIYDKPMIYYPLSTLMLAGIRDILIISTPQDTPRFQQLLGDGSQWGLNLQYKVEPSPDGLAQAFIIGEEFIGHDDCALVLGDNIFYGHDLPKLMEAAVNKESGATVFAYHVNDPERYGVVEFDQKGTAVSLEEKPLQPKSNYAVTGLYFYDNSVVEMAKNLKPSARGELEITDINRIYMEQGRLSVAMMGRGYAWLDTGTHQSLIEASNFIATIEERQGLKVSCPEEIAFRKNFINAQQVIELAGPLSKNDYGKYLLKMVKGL

For the first assay, the target named is T1, RmlA Q83N (Salmonella typhimurium, UniProt P26393, Q83N).
T1 construct: His6 (pET28a) (N); made in house; host or cells: Escherichia coli BL21 (DE3)
T1 sequence (P26393 whole entry Q83N): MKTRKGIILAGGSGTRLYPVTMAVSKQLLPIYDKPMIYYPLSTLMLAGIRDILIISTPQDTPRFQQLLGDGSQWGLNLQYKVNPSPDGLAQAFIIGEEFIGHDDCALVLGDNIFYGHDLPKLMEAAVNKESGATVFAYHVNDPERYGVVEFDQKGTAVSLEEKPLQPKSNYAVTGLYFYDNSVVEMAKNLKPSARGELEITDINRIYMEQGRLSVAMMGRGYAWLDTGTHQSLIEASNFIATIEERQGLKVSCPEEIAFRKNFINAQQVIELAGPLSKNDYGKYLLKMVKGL
The experiment in a line: Relative activity of RmlA mutant Q83N with alternative NTPs. The assay is classed as biochemical, Salmonella enterica typhimurium LT2. Particulars: 10 mM Glucose-1-phosphate, 0.1-10 μM enzyme, 5 mM NTP, 10 mM MgCl2, pH 8.0, 37° C. From the text:
(§1) RmlA mutagenesis—RmlA mutants were generated with the Quikchange mutagenesis kit (Stratagene, La Jolla, Calif., USA) using the wt RmlA-pET28a parent expression plasmid as the template and the primers indicated in Table 1. Individual progeny plasmids were confirmed by DNA sequencing to carry the desired mutations. Driven by these mutant plasmids, the corresponding RmlA variants were subsequently expressed and purified as described above.
(§2) Enzymatic Reactions—The enzyme assay was accomplished via slight modification of previously reported methods (Jiang et al. (2000) J. Am. Chem. Soc. 122, 6803-6804; Jiang et al. (2001) Angew. Chem., Int. Ed. 40, 1502-1505; Jiang et al. (2003) Chem Bio Chem 4, 443-446; Barton et al. (2002) Proc. Natl. Acad. Sci. U.S.A. 99, 13397-13402). In a typical reaction, sugar-1-phosphate (10 mM final) and enzyme (0.01-50 μM) were mixed with NTP (0.01-40 mM) in the presence of MgCl2 ([NTP]+5 mM) and 10 U/mL inorganic pyrophosphatase (Sigma, St. Louis, Mo., USA) in 100 mM Tris HCl, pH 8.0 (20 μL final volume). Typical reactions were analyzed after 10 min at 37° C. and reaction times were extended for some slow reacting sugar/NTP combinations. Reactions were stopped by the addition of 80 μL prewarmed HPLC buffer and heat inactivation (95° C., 5 min). The amount of enzyme used and the incubation time was adjusted so that the reactions never proceeded to more than 10% turnover for kinetics, or 30% for activity assays.
(§3) Product Characterization—Reactions were analyzed via analytical HPLC (Supelcosil LC18-T; Supelco, Bellefonte, Pa.; 5 μm, 250×3 mm, 40 mM phosphoric acid, pH 6.5 with triethylamine, with a gradient of 0-10% MeOH over 20 min, 0.8 mL/min, A254). Due to earlier elution, a 5 min 0% MeOH isocratic hold was performed prior to starting the gradient for CTP-containing reactions. For nucleotide sugar products with commercially available standards, HPLC peak identity was confirmed by co-elution.
Turning to `Nc1ncnc2c1ncn2[C@H]1C[C@H](O)[C@@H](COP(=O)(O)OP(=O)(O)OP(=O)(O)O)O1` [dATP, 2′-deoxyadenosine-5′-triphosphate], the “Relative activity of Q83N as compared to wt RmlA” value worked out at 3.8.
As to `Nc1nc2c(ncn2[C@H]2C[C@H](O)[C@@H](COP(=O)(O)OP(=O)(O)OP(=O)(O)O)O2)c(=O)[nH]1` [dGTP, 2′-deoxyguanosine-5′-triphosphate], the “Relative activity of Q83N as compared to wt RmlA” value came out at 0.1.

Another assay has as its target T2, RmlA Q83S (Salmonella typhimurium, UniProt P26393, Q83S).
T2 construct: His6 (pET28a) (N); made in house; host or cells: Escherichia coli BL21 (DE3)
The experiment in a line: Relative activity of RmlA mutant Q83S with alternative NTPs. The assay is classed as biochemical, Salmonella enterica typhimurium LT2. The conditions noted are these: 10 mM Glucose-1-phosphate, 0.1-10 μM enzyme, 5 mM NTP, 10 mM MgCl2, pH 8.0, 37° C.
Text: as §1, §2, §3
As to `Nc1ncnc2c1ncn2[C@H]1C[C@H](O)[C@@H](COP(=O)(O)OP(=O)(O)OP(=O)(O)O)O1` [dATP, 2′-deoxyadenosine-5′-triphosphate], the “Relative activity of Q83S as compared to wt RmlA” value came to 7.9.
On the same count and under the same terms, for `Nc1nc2c(ncn2[C@H]2C[C@H](O)[C@@H](COP(=O)(O)OP(=O)(O)OP(=O)(O)O)O2)c(=O)[nH]1` [dGTP, 2′-deoxyguanosine-5′-triphosphate] the value was 0.6.

For the next assay, the target named is T3, RmlA Q83A (Salmonella typhimurium, UniProt P26393, Q83A).
T3 construct: His6 (pET28a) (N); made in house; host or cells: Escherichia coli BL21 (DE3)
T3 sequence (P26393 whole entry Q83A): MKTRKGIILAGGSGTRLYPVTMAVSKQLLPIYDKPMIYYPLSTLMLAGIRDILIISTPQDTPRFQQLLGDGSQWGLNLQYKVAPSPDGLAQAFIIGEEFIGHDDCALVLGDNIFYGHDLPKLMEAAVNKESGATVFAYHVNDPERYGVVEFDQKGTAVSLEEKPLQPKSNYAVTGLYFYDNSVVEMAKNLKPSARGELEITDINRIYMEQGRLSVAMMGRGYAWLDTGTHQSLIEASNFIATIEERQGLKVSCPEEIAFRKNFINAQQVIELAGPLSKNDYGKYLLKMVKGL
The experiment in a line: Relative activity of RmlA mutant Q83A with alternative NTPs. Particulars: 10 mM Glucose-1-phosphate, 0.1-10 μM enzyme, 5 mM NTP, 10 mM MgCl2, pH 8.0, 37° C. The assay is classed as biochemical, Salmonella enterica typhimurium LT2.
Text: as §1, §2, §3
As to `Nc1ncnc2c1ncn2[C@H]1C[C@H](O)[C@@H](COP(=O)(O)OP(=O)(O)OP(=O)(O)O)O1` [dATP, 2′-deoxyadenosine-5′-triphosphate], the “Relative activity of Q83A as compared to wt RmlA” value turned out to be 4.6.
Still for that read-out and setting: in the case of `Nc1nc2c(ncn2[C@H]2C[C@H](O)[C@@H](COP(=O)(O)OP(=O)(O)OP(=O)(O)O)O2)c(=O)[nH]1` [dGTP, 2′-deoxyguanosine-5′-triphosphate] it was 0.2.

Another assay addresses T4, RmlA Q83D (Salmonella typhimurium, UniProt P26393, Q83D).
T4 construct: using BSA as a standard, and a molecular mass of 34.6 kDa; His6 (pET28a) (N); made in house; host or cells: Escherichia coli BL21 (DE3)
The experiment in a line: Relative activity of RmlA mutant Q83D with alternative NTPs. The assay is classed as biochemical, Salmonella enterica typhimurium LT2. Particulars: 10 mM Glucose-1-phosphate, 0.1-10 μM enzyme, 5 mM NTP, 10 mM MgCl2, pH 8.0, 37° C.
Text: as §1, §2, §3
Regarding `Nc1ncnc2c1ncn2[C@H]1C[C@H](O)[C@@H](COP(=O)(O)OP(=O)(O)OP(=O)(O)O)O1` [dATP, 2′-deoxyadenosine-5′-triphosphate], the “Relative activity of Q83D as compared to wt RmlA” value amounted to 0.8.
On the same count and under the same terms, in the case of `Nc1nc2c(ncn2[C@H]2C[C@H](O)[C@@H](COP(=O)(O)OP(=O)(O)OP(=O)(O)O)O2)c(=O)[nH]1` [dGTP, 2′-deoxyguanosine-5′-triphosphate] it was 1.6.

The target of the next assay is T4, RmlA Q83D. The experiment in a line: Pseudo first order kinetics of RmlA Q83D mutant. The assay is classed as biochemical, Salmonella enterica typhimurium LT2. Particulars: 10 mM glucose-1-phosphate, 0.05-25 μM enzyme, [NTP] + 5 mM MgCl2, 100 mM Tris-HCl pH 8.0, 37° C.
Text: (§4) Driven by these mutant plasmids, the corresponding RmlA variants were subsequently expressed and purified as described above.
as §2
(§5) Product Characterization—Reactions were analyzed via analytical HPLC (Supelcosil LC18-T; Supelco, Bellefonte, Pa.; 5 μm, 250×3 mm, 40 mM phosphoric acid, pH 6.5 with triethylamine, with a gradient of 0-10% MeOH over 20 min, 0.8 mL/min, A254). Due to earlier elution, a 5 min 0% MeOH isocratic hold was performed prior to starting the gradient for CTP-containing reactions.
(§6) Kinetic Measurements—Pseudo first order kinetics were obtained by fixing glucose-1-phosphate at a saturating concentration of 10 mM (Barton et al. (2001) Nat Struct Biol 8, 545-551), and titrating NTPs. At least eight different concentrations in the range of ¼×KM to 4×KM (0.09-20 mM for dTTP, 0.2-40 mM for others) were assayed in triplicate. […] Activities were corrected for time and enzyme concentrations, and the kinetic curves were fit to the Michaelis-Menton equation using SigmaPlot with the Enzyme Kinetics module (SPSS, Chicago, Ill., USA).
For the molecule `Nc1nc2c(ncn2[C@H]2C[C@H](O)[C@@H](COP(=O)(O)OP(=O)(O)OP(=O)(O)O)O2)c(=O)[nH]1` [dGTP, 2′-deoxyguanosine-5′-triphosphate], the “kcat^app” value was 5 ± 0.333 s⁻¹.

Still in this assay, the particulars now being: 10 mM glucose-1-phosphate, 0.05-25 μM enzyme, [NTP] + 5 mM MgCl2, 100 mM Tris-HCl pH 8.0, 37° C., read-out: KM^app.
As usually defined, the Km is the substrate concentration at which the rate is half of its maximum. `Nc1nc2c(ncn2[C@H]2C[C@H](O)[C@@H](COP(=O)(O)OP(=O)(O)OP(=O)(O)O)O2)c(=O)[nH]1` [dGTP, 2′-deoxyguanosine-5′-triphosphate]: the Km worked out at 11.5 ± 1.8 mM.

The next assay addresses T5, RmlA Q83E (Salmonella typhimurium, UniProt P26393, Q83E).
T5 construct: His6 (pET28a) (N); made in house; host or cells: Escherichia coli BL21 (DE3)
Nature of the assay: Relative activity of RmlA mutant Q83E with alternative NTPs. The assay is classed as biochemical, Salmonella enterica typhimurium LT2. Particulars: 10 mM Glucose-1-phosphate, 0.1-10 μM enzyme, 5 mM NTP, 10 mM MgCl2, pH 8.0, 37° C.
Text: as §1, §2, §3
For `Nc1ncnc2c1ncn2[C@H]1C[C@H](O)[C@@H](COP(=O)(O)OP(=O)(O)OP(=O)(O)O)O1` [dATP, 2′-deoxyadenosine-5′-triphosphate], the “Relative activity of Q83E as compared to wt RmlA” value is 0.4.
Same read-out and setting: in the case of `Nc1nc2c(ncn2[C@H]2C[C@H](O)[C@@H](COP(=O)(O)OP(=O)(O)OP(=O)(O)O)O2)c(=O)[nH]1` [dGTP, 2′-deoxyguanosine-5′-triphosphate] it was 1.7.

The next assay deals with T2, RmlA Q83S. The experiment in a line: Pseudo first order kinetics of RmlA Q83S mutant. The assay is classed as biochemical, Salmonella enterica typhimurium LT2. Particulars: 10 mM glucose-1-phosphate, 0.05-25 μM enzyme, [NTP] + 5 mM MgCl2, 100 mM Tris-HCl pH 8.0, 37° C.
Text: as §4, §2, §5, §6
As to `Nc1ncnc2c1ncn2[C@H]1C[C@H](O)[C@@H](COP(=O)(O)OP(=O)(O)OP(=O)(O)O)O1` [dATP, 2′-deoxyadenosine-5′-triphosphate], the “kcat^app” value stood at 5.33 ± 0.333 s⁻¹.

The same assay, now with this note: 10 mM glucose-1-phosphate, 0.05-25 μM enzyme, [NTP] + 5 mM MgCl2, 100 mM Tris-HCl pH 8.0, 37° C., read-out: KM^app.
As for `Nc1ncnc2c1ncn2[C@H]1C[C@H](O)[C@@H](COP(=O)(O)OP(=O)(O)OP(=O)(O)O)O1` [dATP, 2′-deoxyadenosine-5′-triphosphate], the Michaelis-Menten constant (Km) was determined as 1.1 ± 0.3 mM.

A further assay concerns the target ST0452 (Sulfurisphaera tokodaii, UniProt Q975F9).
Assay: not given
The conditions noted are these: Sulfolobus tokodaii ST0452, literature; cited from earlier work.
Take `Nc1ncnc2c1ncn2[C@H]1C[C@H](O)[C@@H](COP(=O)(O)OP(=O)(O)OP(=O)(O)O)O1` [dATP, 2′-deoxyadenosine-5′-triphosphate]: the “utilization of NTP by ST0452” value was “good activity”.
For the molecule `Nc1nc2c(ncn2[C@H]2C[C@H](O)[C@@H](COP(=O)(O)OP(=O)(O)OP(=O)(O)O)O2)c(=O)[nH]1` [dGTP, 2′-deoxyguanosine-5′-triphosphate], the “utilization of NTP by ST0452” value is “good activity”.
